Consider one compound from US9724350B2, “N,6-bis(aryl or heteroaryl)-1,3,5-triazine-2,4-diamine compounds as IDH2 mutants inhibitors for the treatment of cancer” (Agios Pharmaceuticals, Inc., priority 2013, dated 2017).

One assay addresses T1, IDH2 R140Q (Homo sapiens, UniProt P48735, R140Q).
T1 sequence (P48735 40-452 R140Q): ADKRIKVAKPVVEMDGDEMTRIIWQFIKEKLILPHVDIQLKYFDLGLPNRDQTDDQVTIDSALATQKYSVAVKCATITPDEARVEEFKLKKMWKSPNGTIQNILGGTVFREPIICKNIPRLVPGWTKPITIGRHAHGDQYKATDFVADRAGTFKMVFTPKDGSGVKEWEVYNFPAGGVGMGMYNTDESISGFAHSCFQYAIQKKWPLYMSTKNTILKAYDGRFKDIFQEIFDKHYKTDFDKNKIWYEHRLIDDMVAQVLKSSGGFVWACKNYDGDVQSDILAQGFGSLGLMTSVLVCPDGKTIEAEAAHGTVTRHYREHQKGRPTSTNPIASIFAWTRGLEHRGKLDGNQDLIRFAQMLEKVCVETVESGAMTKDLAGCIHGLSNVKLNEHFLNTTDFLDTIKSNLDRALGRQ
The assay is described as follows: IDH2 R140Q enzymatic assay (cofactor depletion, diaphorase/resazurin). The format is biochemical. As to conditions: 16 hours preincubation time. Background: Alamar Blue is a resazurin reagent that responds to reducing activity.

Assay [1] has as its system U87MG pLVX-IDH2 R140Q-neo cells. Put plainly: U87MG pLVX-IDH2 R140Q-neo cell based assay (2-HG by LC-MS). The note with it: Homo sapiens, U-87 MG. On the procedure:
U87MG pLVX-IDH2 R140Q-neo cells are grown in T125 flasks in DMEM containing 10% FBS, 1× penicillin/streptomycin and 500 μg/mL G418. They are harvested by trypsin and seeded into 96 well white bottom plates at a density of 5000 cell/well in 100 μl/well in DMEM with 10% FBS. No cells are plated in columns 1 and 12. Cells are incubated overnight at 37° C. in 5% CO2. The next day compounds are made up at 2× concentration and 100 ul are added to each cell well. The final concentration of DMSO is 0.2% and the DMSO control wells are plated in row G. The plates are then placed in the incubator for 48 hours. At 48 hours, 100 ul of media is removed from each well and analyzed by LC-MS for 2-HG concentrations. The cell plate is placed back in the incubator for another 24 hours. At 72 hours post compound addition, 10 mL/plate of Promega Cell Titer Glo reagent is thawed and mixed. The cell plate is removed from the incubator and allowed to equilibrate to room temperature. Then 100 ul of reagent is added to each well of media. The cell plate is then placed on an orbital shaker for 10 minutes and then allowed to sit at room temperature for 20 minutes. The plate is then read for luminescence with an integration time of 500 ms to determine compound effects on growth inhibition.

For the compound `Nc1nc(Nc2ccnc(C(F)(F)F)c2)nc(-c2cccc(C(F)(F)F)n2)n1` [Compound 378, 6-(6-(trifluoromethyl)pyridin-2-yl)-N2-(2-(trifluoromethyl)pyridin-4-yl)-1,3,5-triazine-2,4-diamine], the IC50 (at IDH2 R140Q; in assay [1]) was less than 50 nM in each case.
